Legend:
[1] = test system: E. coli BT3/pACYCSP+pCR2.1 strain; test: Growth of E. coli BT3/pACYCSP+pCR2.1 (vector control) with herbicidal compound; format: cell-based, Escherichia coli; conditions: 18 hours culture, Table 6
Excerpt: According to the description of Gibson, L. C. D. et al., Proc. Natl. Acad. Sci. USA, 92; p 1941 (1995), the DNA fragment containing bchH gene prepared in Example 1 was digested with the restriction enzymes NdeI and BglII. The resultant DNA fragment was inserted between NdeI restriction site and BamHI restriction site of expression vector pET11a (manufactured by Stratagene) to obtain plasmid pETBCH (FIG. 1). This plasmid pETBCH was introduced into E. coli BL21(DE3) strain competent cells (manufactured by Stratagene) according to the manual attached to the competent cells to obtain E. coli BL21(DE3)/pETBCH strain. The strain was inoculated into 1.5 ml LB liquid culture medium (1% tryptone, 0.5% yeast extract, 0.5% NaCl) containing 100 μg/ml ampicillin in a tube (14×10 mm), and the tube was covered with aluminum foil (hereinafter referred to as dark conditions), cultured with shaking at 37° C. under light of fluorescent lamp (about 8000 lux). When the absorbance at 600 nm of the liquid culture medium became about 0.6, isopropyl β-D-thiogalactopyranoside (IPTG) was added to the liquid culture medium so that the final concentration was 0.4 mM, and the culture was continued for about additional 20 hours. […] In contrast to this, when E. coli BL21(DE3)/pETBCH strain was cultured according to the same manner (with IPTG) except that the tube was not covered with aluminum foil (hereinafter referred to as light conditions), E. coli grew and turned red as above.
The plasmid pTCHLH1 and pCR2.1 prepared in Example 7 were introduced into E. coli BT3/pACYCSP strain prepared in Example 3, respectively according to the method described in Hanahan, D. J., Mol. Biol., 166; p 557 (1983). E. coli BT3/pACYCSP+pTCHLH1 strain bearing plasmids pACYCSP and pTCHLH1, and E. coli BT3/pACYCSP+pCR2.1 strain bearing plasmids pACYCSP and pCR2.1 were obtained by culturing the above strains in YPT medium containing 100 μg/ml ampicillin, 15 μg/ml chloramphenicol and 50 μg/ml kanamycin, respectively.
These E. coli strains were inoculated into YPT medium containing 10 or 1 ppm of the PPO inhibitory-type herbicidal compound represented by Structure 8, 100 μg/ml ampicillin, 15 μg/ml chloramphenicol, 50 μg/ml kanamycin, 10 μg/ml hemin and 50 μg/ml aminolevulinic acid, cultured under dark conditions or light conditions according to the same manner as in Example 2. Then, 18 hours after initiation of culture, the absorbance of the liquid culture medium was measured at 600 nm. By taking the absorbance of the medium without the herbicidal compound as 1, the relative value of the absorbance of the medium containing the herbicidal compound was calculated.

[2] = test system: tobacco introduced with the gene encoding the variant barley ferrochelatase; test: Leaf piece chlorophyll test, tobacco with gene encoding variant barley ferrochelatase; format: in vivo; conditions: Table 12; for Resistant level to test compound: same manner as Example 6 (0.3 ppm), treated vs untreated leaf pieces; for Total chlorophyll content treated-leaf: same manner as Example 6 (0.3 ppm, 7 days in light)
Excerpt: The tobacco leaves into which bchH gene was introduced and control recombinant tobacco leaves obtained in Example 5 were collected and each leaf was divided into the right and left equivalent pieces along the main vein, respectively. To one piece was applied an aqueous solution containing 0.3 ppm PPO inhibitory-type herbicidal compound of Structure 8, while, to the other piece was not applied the compound. These leaf pieces were placed on MS medium containing 0.8% agar and allowed to stand at room temperature for 7 days in light place. Then, each leaf piece was ground with pestle and mortar in 5 ml of 80% aqueous acetone solution to extract chlorophyll. The extract liquid was diluted with 80% aqueous acetone solution and the absorbance was measured at 750 nm, 663 nm and 645 nm to calculate total chlorophyll content according to the method described by Macknney G., J. Biol. Chem. (1941) 140, p 315. The results obtained from 4 clones of tobacco into which bchH gene was introduced (BCH1 to 4) and control recombinant tobacco is shown in Table 4. In the table, the resistant level to the herbicidal compound was represented by percentages of the total chlorophyll content of leaf pieces treated with herbicidal compound to that of untreated leaf pieces.
Leaf pieces of tobacco cultured sterilely were infected with said Agrobacterium strain and, according to the same manner as in Example 5, tobacco into which the gene encoding the variant barley ferrochelatase was introduced was obtained.
The level of resistance to the PPO inhibitory-type herbicidal compound represented by Structure 8 was confirmed quantitatively by testing tobacco into which the gene encoding the variant barley ferrochelatase prepared in Example 21 was introduced according to the same manner as in Example 6. The results obtained from 4 clones (HVF 1-4) of tobacco introduced with the gene encoding the variant barley ferrochelatase and control recombinant tobacco are shown in table 12. In the table, the resistant levels to the herbicidal compound are represented by percentages of the total chlorophyll content of leaf pieces treated with herbicidal compound to that of untreated leaf pieces.

[3] = test system: E. coli BT3/pACYCSP+pYAGY strain; test: Growth of E. coli BT3/pACYCSP+pYAGY with herbicidal compound; format: cell-based, Escherichia coli; conditions: 1 ppm, 18 hours culture, Table 15

C#CCOc1cc(N2C(=O)C3=C(CCCC3)C2=O)c(F)cc1Cl [Structure 8]
Relative absorbance ([1]; in the dark, 1 ppm): 1.0 | Relative absorbance ([1]; in the dark, 10 ppm): 1.0 | Relative absorbance ([1]; in the light, 1 ppm): 0.08 | Relative absorbance ([1]; in the light, 10 ppm): 0.03 | Resistant level to test compound ([2]; clone HVF-1): 106% | Total chlorophyll content treated-leaf ([2]; clone HVF-1): 0.930 mg/g-fresh weight | Resistant level to test compound ([2]; clone HVF-2): 102% | Total chlorophyll content treated-leaf ([2]; clone HVF-2): 1.16 mg/g-fresh weight | Resistant level to test compound ([2]; clone HVF-3): 98.1% | Total chlorophyll content treated-leaf ([2]; clone HVF-3): 1.04 mg/g-fresh weight | Resistant level to test compound ([2]; clone HVF-4): 95.9% | Total chlorophyll content treated-leaf ([2]; clone HVF-4): 1.42 mg/g-fresh weight | Relative absorbance ([3]; in the dark): 0.99 | Relative absorbance ([3]; in the light): 0.48

Source: patent US7973219B2, “Method for producing transgenic plants resistant to weed control compounds which disrupt the porphyrin pathways of plants” (Sumitomo Chemical Company, Limited, priority 1998, dated 2011)
